# Assays:
# ADtg mice [1] = assay: Pre- and post-synaptic density in brains of AD+ mice after immune modulation; type: in vivo, mouse; conditions: 13m old AD+ mice (FIG. 3E)
# Protocol: ADtg mice (10 months old) received subcutaneous injections of GA [also known as Cop-1 and Copaxone®; 100 μg in phosphate-buffered saline (PBS)] or PBS alone (control group) twice a week for 1 week and then once a week for 8 weeks. For evaluation of innate immune infiltration to the brain by flow cytometry, 10-month-old ADtg mice received subcutaneous injections of GA ([…]) or PBS alone twice a week for 1 week and then once a week for 3 weeks. At the end of the study, all mice were anaesthetized and then perfused with ice-cold PBS with 0.5 mM EDTA, after which their organs were collected and analyzed or fixed in 2.5% paraformaldehyde (Sigma-Aldrich), and cryoprotected with 30% sucrose for further histological analysis. […]
# To define the synaptic area in the hippocampus of ADtg and non-transgenic (wild-type) mice, three independent coronal brain sections at bregma −2.50 , −2.65, and −2.80 mm (Liang et al., 2011) per animal (n=6 mice per group) were stained with the presynaptic marker VGluT1 (encoded by Slc17a7) (Chemicon, guinea pig, 1:6000). […] Single optical section images were analyzed using the NIH ImageJ macro and batch process to quantify the synaptic area (15 optical sections/field, 15 fields/brain section, and 675 total images/brain). The average synaptic area or percentage of the area per image was calculated for each condition. […]
# [2] = system: infiltrating OPN+CD45high cells; assay: OPN+CD45high infiltrating cell count in ADtg mouse brain; type: in vivo; conditions: cell count per section, vs PBS controls (FIG. 13F)
# Protocol: (§1) ADtg mice (10 months old) received subcutaneous injections of GA [also known as Cop-1 and Copaxone®; 100 μg in phosphate-buffered saline (PBS)] or PBS alone (control group) twice a week for 1 week and then once a week for 8 weeks. For evaluation of innate immune infiltration to the brain by flow cytometry, 10-month-old ADtg mice received subcutaneous injections of GA (100 mg in PBS) or PBS alone twice a week for 1 week and then once a week for 3 weeks. At the end of the study, all mice were anaesthetized and then perfused with ice-cold PBS with 0.5 mM EDTA, after which their organs were collected and analyzed or fixed in 2.5% paraformaldehyde (Sigma-Aldrich), and cryoprotected with 30% sucrose for further histological analysis.
# CD115^+ monocytes from mice donors were isolated as previously reported (Koronyo et al., Brain: a journal of neurology 2015,138:2399-2422). In brief, bone marrow cells were harvested from the femora, tibiae, and humeri and enriched for mononuclear cells on a Ficoll-Paque® PLUS (17-1440-03, GE Healthcare) density gradient. […]
# The number and area (μm^2) of OPN+ cells, Iba1^+CD45^hi cells, GFAP^+ cells, Thio-S^+ amyloid-βplaques and 4G8^+ amyloid-βplaques were determined by examining four to six coronal sections per mouse at 150-μm intervals over an area covering both the hippocampal and cortical (including entorhinal and cingulate cortex) regions. […]
# ADtg mice [3] = assay: Vascular cerebral amyloid angiopathy (CAA) score in ADtg mice; type: in vivo, mouse; conditions: ADtg mice (FIG. 12)
# Protocol: as §1
# Following secondary antibody staining, the brain sections were stained with thioflavin-S(Thio-S, 1% w/v in 70% ethanol) (Sigma-Aldrich) for 10 min at room temperature, washed three times in 70% ethanol, and then washed once in distilled water, for 1 min each.
substance,measurement,setting,value
glatiramer acetate [GA],synaptic rescue (pre- and post-synaptic areas),ADtg mice [1],remarkable synaptic rescue
same,increase in number of infiltrating OPN+CD45high cells,[2],1.5 fold
same,vascular cerebral amyloid angiopathy (CAA) burden,ADtg mice [3],decreases
